Results: ChEMBL document CHEMBL1201862, “PubChem BioAssay data set” (2004)
Calls of active or inactive are those of the source.

How the values were obtained:
[1] = molecular target: Aspartyl aminopeptidase (Plasmodium falciparum 3D7, UniProt Q8I2J3); experiment: Counterscreen for inhibitors of M1 and M17 aminopeptidases: QFRET-based biochemical high throughput dose response assay for inhibitors of the Plasmodium falciparum M18 Aspartyl Aminopeptidase (PFM18AAP). [Related PubChem assays: 1619 (Screening assay (M17LAP inhibitors).), 1445 (Screening assay (M1AAP inhibitors).)]
[2] = molecular target: T1, Aminopeptidase N (Plasmodium falciparum FcB1/Columbia, UniProt O96935); experiment: malaria alanyl aminopeptidase activity blockers – biochemical, fluorogenic H-Leu-NHMec substrate, 1536-well (AID 1445); parameters: species or system Plasmodium falciparum 3D7, 3D7
T1 sequence (O96935 whole entry): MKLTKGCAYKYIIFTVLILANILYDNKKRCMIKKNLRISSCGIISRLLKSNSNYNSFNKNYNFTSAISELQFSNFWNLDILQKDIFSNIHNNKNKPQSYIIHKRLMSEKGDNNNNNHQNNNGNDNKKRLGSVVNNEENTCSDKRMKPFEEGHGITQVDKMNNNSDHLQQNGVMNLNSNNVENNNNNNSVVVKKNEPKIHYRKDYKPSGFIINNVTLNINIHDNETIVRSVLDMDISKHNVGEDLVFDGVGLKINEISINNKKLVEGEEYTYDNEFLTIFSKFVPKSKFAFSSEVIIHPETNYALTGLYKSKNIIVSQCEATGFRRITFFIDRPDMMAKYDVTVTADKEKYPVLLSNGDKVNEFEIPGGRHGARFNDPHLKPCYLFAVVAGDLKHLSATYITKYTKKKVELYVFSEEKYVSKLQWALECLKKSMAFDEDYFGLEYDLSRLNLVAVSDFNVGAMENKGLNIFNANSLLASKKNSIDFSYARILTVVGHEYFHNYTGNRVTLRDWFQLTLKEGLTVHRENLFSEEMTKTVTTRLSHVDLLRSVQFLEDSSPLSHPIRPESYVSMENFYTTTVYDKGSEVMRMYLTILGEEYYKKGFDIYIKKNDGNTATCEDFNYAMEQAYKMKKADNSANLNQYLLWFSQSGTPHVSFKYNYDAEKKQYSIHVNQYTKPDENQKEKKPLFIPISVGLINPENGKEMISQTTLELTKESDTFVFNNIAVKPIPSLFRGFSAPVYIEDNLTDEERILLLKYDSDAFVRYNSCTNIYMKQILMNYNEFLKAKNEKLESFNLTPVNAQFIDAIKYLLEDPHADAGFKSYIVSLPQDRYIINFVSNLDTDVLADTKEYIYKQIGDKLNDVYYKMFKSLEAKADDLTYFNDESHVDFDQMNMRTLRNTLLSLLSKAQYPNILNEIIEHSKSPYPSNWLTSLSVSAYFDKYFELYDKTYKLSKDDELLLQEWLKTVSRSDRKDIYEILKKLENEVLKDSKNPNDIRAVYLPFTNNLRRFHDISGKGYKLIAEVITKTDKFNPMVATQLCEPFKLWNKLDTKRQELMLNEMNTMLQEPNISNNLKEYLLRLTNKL

[3] = molecular target: Procathepsin L (Homo sapiens, UniProt P07711); experiment: CTSL1 protease inhibition – biochemical, QFRET, 1536-well, counter-screen for M1/M17 aminopeptidase inhibitor project, dose response (AID 2214)
[4] = molecular target: T2, Induced myeloid leukemia cell differentiation protein Mcl-1 (Homo sapiens, UniProt Q07820); experiment: blockers of MCL1 binding to BIM peptide – biochemical, fluorescence polarization, BIM-BH3 peptide, 1536-well, dose response (AID 2217)
[5] = molecular target: Bcl-2-like protein 1 (Homo sapiens, UniProt Q07817); experiment: blockers of BCLXL peptide binding – biochemical, fluorescence polarization, 1536-well, selectivity assay for MCL1 inhibitor project, dose response (AID 2218)
[6] = molecular target: T2, Induced myeloid leukemia cell differentiation protein Mcl-1; assay type: functional
[7] = molecular target: DNA (cytosine-5)-methyltransferase 1 (Homo sapiens, UniProt P26358); experiment: inhibition of DNA methylation by DNMT1 – biochemical, fluorescent molecular beacon, confirmation (AID 602386); assay type: functional
[8] = molecular target: T3, Probable nicotinate-nucleotide adenylyltransferase (Staphylococcus aureus (strain N315), UniProt P65502); assay type: functional, Staphylococcus aureus subsp. aureus N315;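 on IC50 Mean: confirmatory dose-response retesting of NadD inhibitor hits first found in an ultra-high-throughput screen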
[9] = molecular target: T3, Probable nicotinate-nucleotide adenylyltransferase; assay type: functional, Staphylococcus aureus subsp. aureus N315; conditions: read-out: IC50_Mean
[10] = molecular target: Albumin (Bos taurus, UniProt P02769); experiment: Counterscreen for inhibitors of T-cell receptor (TCR)-CD3 interaction: Fluorescence-based biochemical high throughput dose response assay to identify inhibitors of T-cell receptor (TCR)-CD3 interaction using a TAMRA-labeled BSA probe.; assay type: functional
[11] = molecular target: NADPH oxidase 1 (Homo sapiens, UniProt Q9Y5S8); experiment: Luminescence-based cell-based dose response assay to identify inhibitors of NADPH oxidase 1 (NOX1).; assay type: functional
[12] = molecular target: T4, Rac GTPase-activating protein 1 (Homo sapiens, UniProt Q9H0H5); experiment: blockers of MgcRacGAP-driven Rac1 GTP hydrolysis – biochemical, ADP Hunter fluorescence, primary and confirmatory, confirmation (AID 624330); assay type: functional
T4 sequence (Q9H0H5 whole entry): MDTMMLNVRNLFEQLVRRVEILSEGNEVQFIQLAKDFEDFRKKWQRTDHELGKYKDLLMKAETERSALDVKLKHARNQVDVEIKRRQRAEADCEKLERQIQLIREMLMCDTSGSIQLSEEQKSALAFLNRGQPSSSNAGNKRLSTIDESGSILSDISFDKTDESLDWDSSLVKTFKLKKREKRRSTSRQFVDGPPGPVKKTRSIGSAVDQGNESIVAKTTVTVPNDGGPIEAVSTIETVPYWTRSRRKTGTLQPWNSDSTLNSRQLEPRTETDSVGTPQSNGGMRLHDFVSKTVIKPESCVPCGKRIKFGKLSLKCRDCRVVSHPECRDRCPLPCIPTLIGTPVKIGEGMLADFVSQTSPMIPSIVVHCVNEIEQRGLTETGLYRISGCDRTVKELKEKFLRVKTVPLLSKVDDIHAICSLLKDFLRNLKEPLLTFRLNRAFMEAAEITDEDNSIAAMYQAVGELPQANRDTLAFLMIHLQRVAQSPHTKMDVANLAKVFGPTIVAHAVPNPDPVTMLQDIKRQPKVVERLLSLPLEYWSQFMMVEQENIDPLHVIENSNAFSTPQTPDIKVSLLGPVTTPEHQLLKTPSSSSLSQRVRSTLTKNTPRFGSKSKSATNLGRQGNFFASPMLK

[13] = molecular target: T5, Estrogen receptor beta (Homo sapiens, UniProt Q92731);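 further: recombinant ER-beta bound to coactivator SRC1 peptide in presence of estradiol agonist; inhibitors block coactivator peptide binding and lower the FRET signal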
[14] = molecular target: T5, Estrogen receptor beta; experiment: blockers of SRC-3 recruitment to ERβ – biochemical, ELISA, streptavidin-HRP readout, orthogonal assay, confirmation (AID 1060)
[15] = molecular target: Low molecular weight phosphotyrosine protein phosphatase (Homo sapiens, UniProt P24666); assay type: functional; conditions: read-out: IC50_Mean;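 further: Dose-response confirmation assay measuring inhibition of LMPTP enzyme activity by fluorescence intensity read-out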
[16] = molecular target: Estrogen receptor (Homo sapiens, UniProt P03372);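 further: potency for inhibiting coactivator peptide recruitment to the receptor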
[17] = A High Throughput Confirmatory Assay used to Identify Novel Compounds that Inhibit Mycobacterium Tuberculosis in the absence of Glycerol.; assay type: functional
[18] = M. tuberculosis growth inhibition, HTS (AID 449762); assay type: functional
[19] = microbe, parasite or virus in culture; assay type: functional; conditions: Mycobacterium tuberculosis
[20] = system: Vero; experiment: inhibition of WNV-induced cytopathic effect – cell-based, CPE readout (AID 1621); assay type: functional; conditions: Chlorocebus sabaeus

T2 sequence (Q07820 whole entry): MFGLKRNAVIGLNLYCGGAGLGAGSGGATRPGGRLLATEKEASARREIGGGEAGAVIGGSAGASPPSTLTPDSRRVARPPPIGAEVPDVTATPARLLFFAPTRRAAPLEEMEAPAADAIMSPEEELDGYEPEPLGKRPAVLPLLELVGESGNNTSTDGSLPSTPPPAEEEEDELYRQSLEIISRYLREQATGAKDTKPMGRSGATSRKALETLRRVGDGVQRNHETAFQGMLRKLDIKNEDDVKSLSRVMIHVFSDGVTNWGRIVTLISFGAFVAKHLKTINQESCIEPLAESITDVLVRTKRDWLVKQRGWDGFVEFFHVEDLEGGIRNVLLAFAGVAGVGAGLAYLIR
T5 sequence (Q92731 whole entry): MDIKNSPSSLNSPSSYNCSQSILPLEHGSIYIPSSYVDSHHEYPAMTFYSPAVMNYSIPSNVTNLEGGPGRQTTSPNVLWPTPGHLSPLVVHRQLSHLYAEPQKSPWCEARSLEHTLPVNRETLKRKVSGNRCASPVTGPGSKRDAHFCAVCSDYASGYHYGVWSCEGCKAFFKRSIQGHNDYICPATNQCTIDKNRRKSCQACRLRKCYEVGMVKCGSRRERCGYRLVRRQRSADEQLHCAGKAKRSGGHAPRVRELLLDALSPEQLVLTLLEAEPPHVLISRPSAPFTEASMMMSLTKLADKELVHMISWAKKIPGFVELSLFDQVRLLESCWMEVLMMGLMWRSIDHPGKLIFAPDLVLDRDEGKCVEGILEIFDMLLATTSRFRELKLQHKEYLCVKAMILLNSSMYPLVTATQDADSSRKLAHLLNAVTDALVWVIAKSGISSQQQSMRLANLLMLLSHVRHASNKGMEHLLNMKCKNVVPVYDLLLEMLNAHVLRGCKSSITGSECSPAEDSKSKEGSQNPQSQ
T3 sequence (P65502 whole entry): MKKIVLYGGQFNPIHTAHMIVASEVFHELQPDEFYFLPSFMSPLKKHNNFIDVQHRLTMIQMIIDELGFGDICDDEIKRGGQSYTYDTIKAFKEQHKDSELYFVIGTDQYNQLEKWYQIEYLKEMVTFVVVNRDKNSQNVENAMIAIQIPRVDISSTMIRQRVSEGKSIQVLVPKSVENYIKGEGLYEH
Sequence of Aspartyl aminopeptidase (Q8I2J3 whole entry): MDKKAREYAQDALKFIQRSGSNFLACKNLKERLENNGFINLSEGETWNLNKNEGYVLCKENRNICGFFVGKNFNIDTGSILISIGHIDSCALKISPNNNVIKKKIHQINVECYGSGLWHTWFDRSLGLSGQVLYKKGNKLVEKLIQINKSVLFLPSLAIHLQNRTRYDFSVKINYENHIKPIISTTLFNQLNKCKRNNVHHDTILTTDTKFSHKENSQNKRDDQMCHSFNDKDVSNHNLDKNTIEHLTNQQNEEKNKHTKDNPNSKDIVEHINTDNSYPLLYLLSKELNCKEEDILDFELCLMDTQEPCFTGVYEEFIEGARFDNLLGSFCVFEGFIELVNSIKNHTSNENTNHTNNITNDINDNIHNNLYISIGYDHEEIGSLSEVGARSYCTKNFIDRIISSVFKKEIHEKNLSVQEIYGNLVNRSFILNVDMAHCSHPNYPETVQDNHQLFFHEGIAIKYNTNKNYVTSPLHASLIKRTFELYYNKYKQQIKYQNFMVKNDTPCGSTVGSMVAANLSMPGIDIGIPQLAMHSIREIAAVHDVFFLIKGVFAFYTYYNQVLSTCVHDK
Sequence of DNA (cytosine-5)-methyltransferase 1 (P26358 whole entry): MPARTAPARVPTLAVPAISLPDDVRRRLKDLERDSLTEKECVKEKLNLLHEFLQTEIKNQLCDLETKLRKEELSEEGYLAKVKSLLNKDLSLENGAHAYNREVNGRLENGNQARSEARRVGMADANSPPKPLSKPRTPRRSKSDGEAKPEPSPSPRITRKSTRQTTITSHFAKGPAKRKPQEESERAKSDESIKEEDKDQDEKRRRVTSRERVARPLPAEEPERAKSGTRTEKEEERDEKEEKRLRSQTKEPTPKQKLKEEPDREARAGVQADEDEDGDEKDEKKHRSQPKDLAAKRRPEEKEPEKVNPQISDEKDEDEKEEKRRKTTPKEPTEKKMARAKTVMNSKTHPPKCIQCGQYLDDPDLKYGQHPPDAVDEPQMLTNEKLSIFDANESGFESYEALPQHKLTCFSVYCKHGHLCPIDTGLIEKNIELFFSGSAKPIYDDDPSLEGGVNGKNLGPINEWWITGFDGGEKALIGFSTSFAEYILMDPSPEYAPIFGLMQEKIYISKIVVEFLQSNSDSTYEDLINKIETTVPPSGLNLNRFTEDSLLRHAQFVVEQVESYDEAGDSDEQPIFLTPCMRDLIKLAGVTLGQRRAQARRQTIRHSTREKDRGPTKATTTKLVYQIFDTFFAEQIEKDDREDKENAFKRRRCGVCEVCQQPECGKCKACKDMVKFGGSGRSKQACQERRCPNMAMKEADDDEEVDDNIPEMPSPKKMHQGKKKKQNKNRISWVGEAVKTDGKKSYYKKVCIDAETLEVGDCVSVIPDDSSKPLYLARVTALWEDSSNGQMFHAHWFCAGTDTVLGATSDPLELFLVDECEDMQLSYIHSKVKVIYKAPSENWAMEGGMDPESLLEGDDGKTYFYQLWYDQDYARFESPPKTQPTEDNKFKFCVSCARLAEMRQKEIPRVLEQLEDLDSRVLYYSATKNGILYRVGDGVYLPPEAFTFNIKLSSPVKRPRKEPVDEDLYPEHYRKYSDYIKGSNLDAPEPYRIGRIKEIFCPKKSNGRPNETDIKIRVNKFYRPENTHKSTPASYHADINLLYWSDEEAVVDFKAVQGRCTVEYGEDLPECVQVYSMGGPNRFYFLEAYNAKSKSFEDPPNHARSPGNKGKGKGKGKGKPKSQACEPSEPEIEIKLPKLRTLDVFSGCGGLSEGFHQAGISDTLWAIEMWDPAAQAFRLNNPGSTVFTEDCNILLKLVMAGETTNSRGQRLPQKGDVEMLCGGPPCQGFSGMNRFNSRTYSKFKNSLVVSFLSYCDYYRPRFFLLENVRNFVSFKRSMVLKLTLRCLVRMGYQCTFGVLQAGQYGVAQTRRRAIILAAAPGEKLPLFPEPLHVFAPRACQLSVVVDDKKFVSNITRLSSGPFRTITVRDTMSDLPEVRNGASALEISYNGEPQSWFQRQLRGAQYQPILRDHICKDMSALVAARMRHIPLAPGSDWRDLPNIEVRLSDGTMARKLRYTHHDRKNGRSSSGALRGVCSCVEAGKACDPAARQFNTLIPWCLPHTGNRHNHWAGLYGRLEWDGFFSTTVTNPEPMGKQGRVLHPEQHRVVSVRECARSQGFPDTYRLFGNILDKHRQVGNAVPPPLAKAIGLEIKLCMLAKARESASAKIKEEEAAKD
Sequence of Bcl-2-like protein 1 (Q07817 whole entry): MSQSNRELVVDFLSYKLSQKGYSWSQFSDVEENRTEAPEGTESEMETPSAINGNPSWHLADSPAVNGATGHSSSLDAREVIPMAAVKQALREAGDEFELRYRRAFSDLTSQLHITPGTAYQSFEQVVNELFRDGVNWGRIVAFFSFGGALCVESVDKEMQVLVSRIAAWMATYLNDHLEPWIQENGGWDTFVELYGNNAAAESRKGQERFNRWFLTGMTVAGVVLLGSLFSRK
Sequence of Estrogen receptor (P03372 whole entry): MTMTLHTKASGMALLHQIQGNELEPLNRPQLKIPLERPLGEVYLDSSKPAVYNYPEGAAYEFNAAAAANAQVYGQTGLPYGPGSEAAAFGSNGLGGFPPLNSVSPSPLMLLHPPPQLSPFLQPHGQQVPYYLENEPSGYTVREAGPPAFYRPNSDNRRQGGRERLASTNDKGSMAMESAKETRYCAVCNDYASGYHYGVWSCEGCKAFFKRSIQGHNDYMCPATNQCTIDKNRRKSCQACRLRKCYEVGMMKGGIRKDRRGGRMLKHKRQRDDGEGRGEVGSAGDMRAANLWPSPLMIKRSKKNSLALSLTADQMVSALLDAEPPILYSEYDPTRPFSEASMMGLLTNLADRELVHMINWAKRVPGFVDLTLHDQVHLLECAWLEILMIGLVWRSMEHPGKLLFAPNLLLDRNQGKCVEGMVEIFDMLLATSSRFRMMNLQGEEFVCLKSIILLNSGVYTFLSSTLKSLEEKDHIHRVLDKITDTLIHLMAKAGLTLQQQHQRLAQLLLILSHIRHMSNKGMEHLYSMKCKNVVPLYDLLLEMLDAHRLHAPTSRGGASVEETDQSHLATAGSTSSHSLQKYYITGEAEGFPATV
Sequence of NADPH oxidase 1 (Q9Y5S8 whole entry): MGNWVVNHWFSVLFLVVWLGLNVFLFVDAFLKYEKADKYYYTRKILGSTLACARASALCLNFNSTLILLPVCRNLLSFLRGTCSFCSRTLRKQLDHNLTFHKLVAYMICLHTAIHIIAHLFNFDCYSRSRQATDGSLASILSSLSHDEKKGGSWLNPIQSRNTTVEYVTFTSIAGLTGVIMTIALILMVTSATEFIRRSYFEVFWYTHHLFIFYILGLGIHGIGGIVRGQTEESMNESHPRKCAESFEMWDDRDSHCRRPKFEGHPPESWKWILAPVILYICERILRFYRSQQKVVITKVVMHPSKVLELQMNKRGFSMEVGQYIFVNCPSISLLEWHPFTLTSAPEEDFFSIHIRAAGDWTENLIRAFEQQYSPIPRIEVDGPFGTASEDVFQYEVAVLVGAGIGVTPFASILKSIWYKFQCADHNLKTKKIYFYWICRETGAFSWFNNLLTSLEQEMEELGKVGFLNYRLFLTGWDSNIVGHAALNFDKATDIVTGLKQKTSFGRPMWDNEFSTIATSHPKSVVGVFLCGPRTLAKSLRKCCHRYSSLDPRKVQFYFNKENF
Sequence of Procathepsin L (P07711 whole entry): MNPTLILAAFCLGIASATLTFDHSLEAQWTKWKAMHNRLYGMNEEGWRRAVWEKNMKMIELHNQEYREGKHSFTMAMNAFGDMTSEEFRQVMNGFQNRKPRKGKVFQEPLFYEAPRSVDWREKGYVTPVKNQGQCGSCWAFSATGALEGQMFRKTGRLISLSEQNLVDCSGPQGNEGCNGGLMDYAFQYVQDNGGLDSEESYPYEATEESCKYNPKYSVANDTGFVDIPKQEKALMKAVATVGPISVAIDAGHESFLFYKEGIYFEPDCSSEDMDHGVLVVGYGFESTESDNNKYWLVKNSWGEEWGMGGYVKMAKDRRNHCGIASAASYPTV

Question: What does the source list for O=C(NCc1ccc2c(c1)OCO2)C1CCN(S(=O)(=O)c2ccc(Br)s2)CC1?
Answer: IC50 [1]: > 73.5 µM (not active); IC50 [2]: 2.11 µM (active); IC50 [3]: > 59.6 µM (not active)

Question: Which results are given for O=C(Nc1cccc(S(=O)(=O)NC2=NCCC2)c1)c1cc(-c2ccco2)nc2ccccc12?
Answer: IC50 [4]: 4.26 µM (active); IC50 [5]: > 109 µM (not active); IC50 [6]: 1.09 µM (active); IC50 [7]: 3.71 µM (active); IC50 [8]: 9.01 µM (active); IC50 [9]: 22.7 µM (active); IC50 [10]: > 94.1 µM (inactive)

Question: What does the source list for CCN(CC)c1ccc(NC(=O)Nc2ccccc2)cc1?
Answer: IC50 [11]: 0.176 µM (active); IC50 [12]: 45 µM (active)

Question: With N=c1c(C(=O)NCc2ccc3c(c2)OCO3)cc2c(=O)n3ccccc3nc2n1Cc1cccnc1 as the molecule, how does the IC50 [13] read?
Answer: Its IC50 is 5.48 µM (active).

Question: What about the IC50 [14] of the same molecule?
Answer: Its IC50 is > 50 µM (not active).

Question: And the IC50 [6]?
Answer: Its IC50 is 4.3 µM (active).

Question: And the IC50 [15]?
Answer: Its IC50 is 17.1 µM (active).

Question: For CN(CC(=O)NC(=O)NCc1ccco1)Cc1nc(O)c2ccccc2n1, which IC50 [16] is on record?
Answer: Its IC50 is 13.7 µM (active).

Question: For COc1ccc(C2c3[nH]c4ccccc4c3CCN2C(=O)c2cc3ncccn3n2)c(F)c1 (stereo unspecified), which IC50 [17] is on record?
Answer: The IC50 was > 100 µM (active).

Question: And the IC50 [18]?
Answer: Its IC50 is > 100 µM (active).

Question: And the CC50 [19]?
Answer: The CC50 was > 40 µM (active).

Question: And the IC50 [20]?
Answer: Its IC50 is 34.6 µM (active).
